As a reminder, the EC50 is the concentration at which the effect is half-maximal.

Read-outs that look alike come from different tables or passages of the source.

In US11617777B2, “Cytotoxic and anti-mitotic compounds, and methods of using the same” (ZYMEWORKS BC INC., priority 2013, dated 2023) one finds EC50 data, which are given here for twelve compounds.

Holding throughout (experiment): Cytotoxicity of compounds, CellTiter-Glo
Test [1] deals with MiaPaCa2. It counts as cell-based. The note with it: Homo sapiens, MIA PaCa-2; Table 5; MinPaCa2; read-out: Cytotoxicity (EC50) MinPaCa2. The source says: (§1) FIG. 1 summarizes the data for compounds A, B, C, D, and E when tested using the Human mammary carcinoma cell line HCC1954 or Human T-cell leukemia cell line Jurkat. FIGS. 2-6 show the cytotoxicity data plots for individual compounds A-E. Tables 2-6 summarize the results of additional cytotoxicity assays.
(§2) Cell lines used: Human T-cell leukemia cell line Jurkat (ATCC: TIB-152); HCC1954 (ATCC: CRL. 2338); Human Pancreatic cells lines: AsPC-1 (ATCC: CRL-1682), BxPC-3 (ATCC: CRL.1687), HPAF-II (ATCC: CRL.1997), MiaPaCa2 (ATCC: CRL.1420), PANC-1 (ATCC: CRL.1469), Capan-1 (ATCC: HTB-79), Capan-2 (ATCC: HTB-80) and the Human gastric carcinoma cell line NCI-N87 (ATCC: CRL. 5822); AML-193 (ATCC: CRL.9589), CCRF-CEM (ATCC: CCL-119), DU145 (ATCC: HTB-81), PC-3 (ATCC: CRL.1435), A-431 (ATCC: CRL.1555), HT-29 (ATCC: HTB-38), A-172 (ATCC: CRL.1620), NCI-H358 (ATCC: CRL.5807), A549 (ATCC: CCL-185), Colo-205 (ATCC: CCL-222), MDA-MB-231 (ATCC: HTB-26), OVCAR-3 (ATCC: HTB-161), OV-90 (ATCC: CRL.11732), OE19 (Sigma: 96071721), RT 112/84 (Sigma: 85061106).
(§3) On the day prior to adding compounds, HCC1954 AsPC-1, BxPC-3, HPAF-II, MiaPaCa2, PANC-1, Capan-1, Capan-2 and NCI-N87 cells were added to opaque-walled 96-well tissue culture-treated microtiter plates using complete growth medium at a density of 2500 cells/100 microlitre (uL) of medium. These adherant cell lines cells were incubated for one night at 37° C./5% CO2 to allow the cells to attach to the microtiter plate surface. On the day that compounds were added, Jurkat cells are added to separate 96-well microtiter plates at 2500 cells/100 uL using the same growth medium as HCC1954. Compound were first serially diluted using dimethyl sulfoxide, and then the prepared dilutions are added to complete growth medium at five-times the final concentration—compounds were then titrated 1:3, eight steps. A control with no compound (growth medium alone) was included on each microtiter plate in sextuplicate. The prepared compounds titrations were added (twenty-five uL/well) in triplicate. The cells and compound titrations were incubated at 37° C./5% CO2 for three nights. After the incubation, cell viability is measured using CellTiter-Glo® reagent by adding thirty uL of prepared CellTiter-Glo® to each assay well. The assay is incubated for at least twenty minutes in the dark prior to measuring emitted luminescence using a microplate luminometer (500 ms integration time). The collected relative luminescence units (RLU) are converted to % cytotoxicity using the Growth medium alone control mentioned above (% Cytotoxicity=1−[Well RLU/average medium alone control RLU]).
(§4) GraphPad Prism was used for generation of EC50 values using three parameter non-linear regression curve fitting.

In test [2] the test system is PANC-1. It counts as cell-based. The note with it: Homo sapiens, Table 5, read-out: Cytotoxicity (EC50) PANC-1.
Text: as §1, §2, §3, §4

The test system of test [3] is BxPC-3. It counts as cell-based. Particulars: Homo sapiens, Table 5, read-out: Cytotoxicity (EC50) BxPC-3.
Text: as §1, §2, §3, §4

Test [4] relates to AsPC-1. The class given is cell-based. The note with it: Homo sapiens, ASPC1, Table 5, read-out: Cytotoxicity (EC50) AsPC-1.
Text: as §1, §2, §3, §4

The test system of test [5] is HPAF-II. The class given is cell-based. The note with it: Homo sapiens, Table 5, read-out: Cytotoxicity (EC50) HPAF-II.
Text: as §1, §2, §3, §4

Test [6] concerns Jurkat cells. It counts as cell-based, Human. Particulars: Homo sapiens, Jurkat. Put shortly:
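HCC1954 plated at 2500 cells/100 uL and attached overnight; Jurkat plated at 2500 cells/100 uL on the day of dosing. Cells exposed to 8-step 1:3 compound titrations for three nights at 37° C./5% CO2, in triplicate. CellTiter-Glo luminescence converted to % cytotoxicity versus medium-only control; EC50 by three-parameter nonlinear regression.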

The test system of test [7] is HCC1954 cells. The class given is cell-based. Particulars: Homo sapiens.
Text: as §2, §3, §4

Where [8] appears, read: Table 3, Cytotoxicity of Compounds on Jurkat Cells, read-out: EC50.
Where [9] appears, read: HCC1954, Table 4, Cytotoxicity of Compounds on HCC-1954 Cells, read-out: EC50.
The mark [10] stands for this setting: Table 6, Compound Cytotoxicity on Jurkat, read-out: EC50.
Setting [11] is: Table 7, Cytotoxicity on Jurkat, read-out: EC50.

As for `CN[C@H](C(=O)N[C@H](C(=O)N(C)[C@H](/C=C(\C)C(=O)NS(=O)(=O)c1ccc(C2(N)CC2)cc1)C(C)C)C(C)(C)C)C(C)(C)c1ccccc1` [Compound 63, (S,E)-N-(4-(1-aminocyclopropyl)phenylsulfonyl)-2,5-dimethyl-4-((S)—N,3,3-trimethyl-2-((S)-3-methyl-2-(methylamino)-3-phenylbutanamido)butanamido) hex-2-enamide], the 50% effective concentration (EC50) in test [1] worked out at 1.02 nM; in test [2], 4 nM; in test [3], 0.697 nM; in test [4] it was 0.97 nM; in test [5], 0.826 nM.

Take `CN[C@H](C(=O)N[C@H](C(=O)N(C)[C@H](/C=C(\C)C(=O)NS(=O)(=O)Cc1ccc(NC(=O)C(F)(F)F)cc1)C(C)C)C(C)(C)C)C(C)(C)c1ccccc1` [Compound 79, (S,E)-2,5-dimethyl-N-(4-(2,2,2-trifluoroacetamido)benzylsulfonyl)-4-((S)—N,3,3-trimethyl-2-((S)-3-methyl-2-(methylamino)-3-phenylbutanamido)butanamido)hex-2-enamide]: the results for the EC50 in test [6] (setting [8]) and in test [7] (setting [9]) were 0.386 nM and 0.241 nM, respectively.

On to `CN[C@H](C(=O)N[C@H](C(=O)N(C)[C@H](/C=C(\C)C(=O)NS(=O)(=O)Cc1ccc(N)cc1)C(C)C)C(C)(C)C)C(C)(C)c1ccccc1` [Compound 80, (S,E)-N-(4-aminobenzylsulfonyl)-2,5-dimethyl-4-((S)—N,3,3-trimethyl-2-((S)-3-methyl-2-(methylamino)-3-phenylbutanamido)butanamido)hex-2-enamide], for which the values for the concentration giving a half-maximal response (EC50) in test [6] (setting [8]) and in test [7] (setting [9]) were 0.389 nM and 0.207 nM, respectively.

With `CCc1cc(N)ccc1S(=O)(=O)NC(=O)/C(C)=C/[C@H](C(C)C)N(C)C(=O)[C@@H](NC(=O)[C@@H](NC)C(C)(C)c1ccccc1)C(C)(C)C` [Compound 107, (S,E)-N-(4-amino-2-ethylphenylsulfonyl)-2,5-dimethyl-4-((S)—N,3,3-trimethyl-2-((S)-3-methyl-2-(methylamino)-3-phenylbutanamido)butanamido)hex-2-enamide], the EC50 in test [6] (setting [10]) and in test [6] (setting [11]) was 0.043 nM throughout.

In the case of `CN[C@H](C(=O)N[C@H](C(=O)N(C)[C@H](/C=C(\C)C(=O)NS(=O)(=O)c1ccc(N)c(OC(F)(F)F)c1)C(C)C)C(C)(C)C)C(C)(C)c1ccccc1` [Compound 108, (S,E)-N-(4-amino-3-(trifluoromethoxy)phenylsulfonyl)-2,5-dimethyl-4-((S)—N,3,3-trimethyl-2-((S)-3-methyl-2-(methylamino)-3-phenylbutanamido)butanamido)hex-2-enamide], the EC50 in test [6] (setting [10]) and in test [6] (setting [11]) was 0.017 nM throughout.

Turning to `CN[C@H](C(=O)N[C@H](C(=O)N(C)[C@H](/C=C(\C)C(=O)NS(=O)(=O)c1ccc(N)c(C)c1C)C(C)C)C(C)(C)C)C(C)(C)c1ccccc1` [Compound 109, (S,E)-N-(4-amino-2,3-dimethylphenylsulfonyl)-2,5-dimethyl-4-((S)—N,3,3-trimethyl-2-((S)-3-methyl-2-(methylamino)-3-phenylbutanamido)butanamido) hex-2-enamide], the concentration giving a half-maximal response (EC50) in test [6] (setting [10]) and in test [6] (setting [11]) was 0.087 nM each time.

`CN[C@H](C(=O)N[C@H](C(=O)N(C)[C@H](/C=C(\C)C(=O)NS(=O)(=O)c1ccc(N)c2c1CCCC2)C(C)C)C(C)(C)C)C(C)(C)c1ccccc1` [Compound 110, (S,E)-N-(4-amino-5,6,7,8-tetrahydronaphthalen-1-ylsulfonyl)-2,5-dimethyl-4-((S)—N,3,3-trimethyl-2-((S)-3-methyl-2-(methylamino)-3-phenylbutanamido)butanamido)hex-2-enamide]: the EC50 in test [6] (setting [10]) and in test [6] (setting [11]) was 0.031 nM throughout.

As to `CN[C@H](C(=O)N[C@H](C(=O)N(C)[C@H](/C=C(\C)C(=O)NS(=O)(=O)c1ccc(N)c(C)c1)C(C)C)C(C)(C)C)C(C)(C)c1ccccc1` [Compound 111, (S,E)-N-(4-amino-3-methylphenylsulfonyl)-2,5-dimethyl-4-((S)—N,3,3-trimethyl-2-((S)-3-methyl-2-(methylamino)-3-phenylbutanamido)butanamido)hex-2-enamide], the figures for the EC50 in test [6] (setting [10]) and in test [6] (setting [11]) were ~0.118 nM and 0.12 nM, respectively.

In the case of `CN[C@H](C(=O)N[C@H](C(=O)N(C)[C@H](/C=C(\C)C(=O)NS(=O)(=O)c1ccc(N)c(F)c1)C(C)C)C(C)(C)C)C(C)(C)c1ccccc1` [Compound 112, (S,E)-N-(4-amino-3-fluorophenylsulfonyl)-2,5-dimethyl-4-((S)—N,3,3-trimethyl-2-((S)-3-methyl-2-(methylamino)-3-phenylbutanamido)butanamido)hex-2-enamide], the half-maximal effective concentration (EC50) in test [6] (setting [10]) and in test [6] (setting [11]) was 0.064 nM each time.

As for `CN[C@H](C(=O)N[C@H](C(=O)N(C)[C@H](/C=C(\C)C(=O)NS(=O)(=O)c1ccc(N)c(C(F)(F)F)c1)C(C)C)C(C)(C)C)C(C)(C)c1ccccc1` [Compound 114, (S,E)-N-(4-amino-3-(trifluoromethyl)phenylsulfonyl)-2,5-di methyl-4-((S)—N,3,3-trimethyl-2-((S)-3-methyl-2-(methylamino)-3-phenylbutanamido)butanamido)hex-2-enamide], the half-maximal effective concentration (EC50) in test [6] (setting [10]) and in test [6] (setting [11]) was 0.056 nM in each case.

As for `C/C(=C\[C@H](C(C)C)N(C)C(=O)[C@@H](NC(=O)[C@@H]1CCCCN1C(C)C)C(C)(C)C)C(=O)NS(=O)(=O)CCCS` [Compound 115, (S)-1-isopropyl-N—((S)-1-(((S,E)-6-(3-mercaptopropylsulfonamido)-2,5-dimethyl-6-oxohex-4-en-3-yl)(methyl)amino)-3,3-dimethyl-1-oxobutan-2-yl)piperidine-2-carboxamide], the concentration giving a half-maximal response (EC50) in test [6] (setting [8]) was 36 nM; in test [7] (setting [9]) it was 172 nM.

For `CN[C@H](C(=O)N[C@H](C(=O)N(C)[C@H](/C=C(\C)C(=O)NS(C)(=O)=O)C(C)C)C(C)(C)C)C(C)(C)c1ccccc1` [Compound E, (S,E)-2,5-dimethyl-N-(methylsulfonyl)-4-((S)—N,3,3-trimethyl-2-((S)-3-methyl-2-(methylamino)-3-phenylbutanamido)butanamido)hex-2-enanmide], the 50% effective concentration (EC50) in test [6] (Table 1, Jurkat cells (HER2−), three nights, read-out: Jurkat cells (HER2−) EC50) was 1.67 nM; in test [6] (Table 2, read-out: Jurkat EC50) it was 1.67 nM; in test [6] (setting [8]), 1.67 nM; in test [7] (setting [9]) it was 0.79 nM; in test [7] (Table 1, HCC1954 cells (HER2+), three nights, read-out: HCC1954 cells (HER2+) EC50), 0.79 nM; in test [7] (Table 2, HCC1954, read-out: HCC1954 EC50), 0.79 nM.
